Reference: US20220281848A1, “PYRAZOLE-SUBSTITUTED PYRROLIDINONES AS HERBICIDES” (FMC Corporation, priority 2019, published 2022)

Experiments:
plants = assay: Test D post-emergence, other plants of Tables D2 and D4; type: in vivo; settings: for VERPE damage rating (100=total damage to plant; 0=no damage to plant): "Cereals" Postemergent, evaluated after 15 d; for damage to plant (100=total damage to plant; 0=no damage to plant), ABUTH / damage to plant (100=total damage to plant; 0=no damage to plant), AMARE / damage to plant (100=total damage to plant; 0=no damage to plant), BIDPI / damage to plant (100=total damage to plant; 0=no damage to plant), BRAPL / damage to plant (100=total damage to plant; 0=no damage to plant), CYPES / damage to plant (100=total damage to plant; 0=no damage to plant), DIGSA / damage to plant (100=total damage to plant; 0=no damage to plant), ECHCG / damage to plant (100=total damage to plant; 0=no damage to plant), ELEIN / damage to plant (100=total damage to plant; 0=no damage to plant), EPHHL / damage to plant (100=total damage to plant; 0=no damage to plant), GLXMA / damage to plant (100=total damage to plant; 0=no damage to plant), IPOHE / damage to plant (100=total damage to plant; 0=no damage to plant), ORYSA / damage to plant (100=total damage to plant; 0=no damage to plant), PANMI / damage to plant (100=total damage to plant; 0=no damage to plant), SETFA / damage to plant (100=total damage to plant; 0=no damage to plant), SORVU: post-emergence
Experimental: A formulation containing 50 g/L of the test chemical was prepared by dissolving the active ingredient in a mixture of organic solvents and emulsifier, details of which are provided in the table. This formulation was then mixed with a small, variable amount of acetone to aid dissolution, before addition of a 0.2% v/v aqueous solution of an adjuvant, as the aqueous diluent, to form an aqueous spray solution which contains a predetermined concentration of the active ingredient.
This aqueous spray solution was then sprayed onto plants including maize and wheat that had been seed treated with a herbicide safener, after one day's cultivation (for pre-emergence) or after about 12 days' cultivation (for post-emergence). The plants were grown from seeds sown in standard soil, placed in a glasshouse under controlled conditions (at 24/18° C. or 20/16° C., day/night; 16 h light; 65% humidity). After spray application the plants were then grown in a glasshouse under the same conditions and watered twice daily. After 15 d for post-emergence and 20 DAA for pre-emergence the test was evaluated (100=total damage to plant; 0=no damage to plant).

[1] = system: velvetleaf (Abutilon theophrasti, ABUTH); assay: Test A pre-emergence, velvetleaf; type: in vivo; settings: after 13 d
In short: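 Pots of soil sown, sprayed at day 1 post-sowing: test compound at 15.625/62.5/250 g/ha in acetone:water 1:1 + 0.5% Tween 20. Glasshouse 24/16° C., 14 h light, 65% RH, watering twice daily. Readout: % damage after 13 d.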

CN1CC(c2cc(C(F)(F)F)n(C)n2)C(C(=O)Nc2ccc(F)cc2F)C1=O (racemic) [Compound 6]
70: damage to plant (100=total damage to plant; 0=no damage to plant), BRAPL (plants; rate 500, evaluated after 15 d) | damage to plant (100=total damage to plant; 0=no damage to plant), DIGSA (plants; rate 500, evaluated after 15 d) | damage to plant (100=total damage to plant; 0=no damage to plant), ECHCG (plants; rate 500, evaluated after 15 d) | damage to plant (100=total damage to plant; 0=no damage to plant), SETFA (plants; rate 500, evaluated after 15 d) | damage to plant (100=total damage; 0=no damage) ABUTH ([1]; Pre-Emergence at 62.5 g/ha) | damage to plant (100=total damage; 0=no damage) ABUTH ([1]; Pre-Emergence at 250 g/ha)
80: damage to plant (100=total damage; 0=no damage) ABUTH ([1]; Pre-Emergence at 15.625 g/ha)
50: damage to plant (100=total damage to plant; 0=no damage to plant), BRAPL (plants; rate 130, evaluated after 15 d) | damage to plant (100=total damage to plant; 0=no damage to plant), ECHCG (plants; rate 250, evaluated after 15 d)
10: VERPE damage rating (100=total damage to plant; 0=no damage to plant) (plants; Rates 250) | damage to plant (100=total damage to plant; 0=no damage to plant), ABUTH (plants; rate 250, evaluated after 15 d) | damage to plant (100=total damage to plant; 0=no damage to plant), EPHHL (plants; rate 130, evaluated after 15 d) | damage to plant (100=total damage to plant; 0=no damage to plant), IPOHE (plants; rate 250, evaluated after 15 d)
60: damage to plant (100=total damage to plant; 0=no damage to plant), BRAPL (plants; rate 250, evaluated after 15 d) | damage to plant (100=total damage to plant; 0=no damage to plant), DIGSA (plants; rate 250, evaluated after 15 d)
0: VERPE damage rating (100=total damage to plant; 0=no damage to plant) (plants; Rates 130) | damage to plant (100=total damage to plant; 0=no damage to plant), ABUTH (plants; rate 130, evaluated after 15 d) | damage to plant (100=total damage to plant; 0=no damage to plant), AMARE (plants; rate 130, evaluated after 15 d) | damage to plant (100=total damage to plant; 0=no damage to plant), BIDPI (plants; rate 130, evaluated after 15 d) | damage to plant (100=total damage to plant; 0=no damage to plant), BIDPI (plants; rate 250, evaluated after 15 d) | damage to plant (100=total damage to plant; 0=no damage to plant), BIDPI (plants; rate 500, evaluated after 15 d) | damage to plant (100=total damage to plant; 0=no damage to plant), CYPES (plants; rate 130, evaluated after 15 d) | damage to plant (100=total damage to plant; 0=no damage to plant), CYPES (plants; rate 250, evaluated after 15 d) | damage to plant (100=total damage to plant; 0=no damage to plant), CYPES (plants; rate 500, evaluated after 15 d) | damage to plant (100=total damage to plant; 0=no damage to plant), DIGSA (plants; rate 130, evaluated after 15 d) | damage to plant (100=total damage to plant; 0=no damage to plant), ECHCG (plants; rate 130, evaluated after 15 d) | damage to plant (100=total damage to plant; 0=no damage to plant), ELEIN (plants; rate 130, evaluated after 15 d) | damage to plant (100=total damage to plant; 0=no damage to plant), ELEIN (plants; rate 250, evaluated after 15 d) | damage to plant (100=total damage to plant; 0=no damage to plant), ELEIN (plants; rate 500, evaluated after 15 d) | damage to plant (100=total damage to plant; 0=no damage to plant), GLXMA (plants; rate 130, evaluated after 15 d) | damage to plant (100=total damage to plant; 0=no damage to plant), GLXMA (plants; rate 250, evaluated after 15 d) | damage to plant (100=total damage to plant; 0=no damage to plant), GLXMA (plants; rate 500, evaluated after 15 d) | damage to plant (100=total damage to plant; 0=no damage to plant), IPOHE (plants; rate 130, evaluated after 15 d) | damage to plant (100=total damage to plant; 0=no damage to plant), ORYSA (plants; rate 130, evaluated after 15 d) | damage to plant (100=total damage to plant; 0=no damage to plant), ORYSA (plants; rate 250, evaluated after 15 d) | damage to plant (100=total damage to plant; 0=no damage to plant), ORYSA (plants; rate 500, evaluated after 15 d) | damage to plant (100=total damage to plant; 0=no damage to plant), PANMI (plants; rate 130, evaluated after 15 d) | damage to plant (100=total damage to plant; 0=no damage to plant), PANMI (plants; rate 250, evaluated after 15 d) | damage to plant (100=total damage to plant; 0=no damage to plant), PANMI (plants; rate 500, evaluated after 15 d) | damage to plant (100=total damage to plant; 0=no damage to plant), SETFA (plants; rate 130, evaluated after 15 d) | damage to plant (100=total damage to plant; 0=no damage to plant), SORVU (plants; rate 130, evaluated after 15 d) | damage to plant (100=total damage to plant; 0=no damage to plant), SORVU (plants; rate 250, evaluated after 15 d) | damage to plant (100=total damage to plant; 0=no damage to plant), SORVU (plants; rate 500, evaluated after 15 d)
20: VERPE damage rating (100=total damage to plant; 0=no damage to plant) (plants; Rates 500) | damage to plant (100=total damage to plant; 0=no damage to plant), ABUTH (plants; rate 500, evaluated after 15 d) | damage to plant (100=total damage to plant; 0=no damage to plant), AMARE (plants; rate 500, evaluated after 15 d) | damage to plant (100=total damage to plant; 0=no damage to plant), EPHHL (plants; rate 250, evaluated after 15 d) | damage to plant (100=total damage to plant; 0=no damage to plant), IPOHE (plants; rate 500, evaluated after 15 d) | damage to plant (100=total damage to plant; 0=no damage to plant), SETFA (plants; rate 250, evaluated after 15 d)
30: damage to plant (100=total damage to plant; 0=no damage to plant), EPHHL (plants; rate 500, evaluated after 15 d)
